For this experiment, the target named is T1, purified catalytic domain of recombinant human TACE (rhTACEc) (Homo sapiens, UniProt P78536, N452Q/S266A).
T1 construct: Residue 215 to 477 with two mutation (S266A and N452Q) and a 6×His tail; 6xHis (C); made in house; host or cells: baculovirus/Hi5 insect cells
The experiment is described as follows: TACE kinetic assay: cleavage of internally quenched peptide substrate SPDL-3, fluorescence. Format: biochemical. Conditions: read-out: Ki. The procedure:
TACE activity is determined by a kinetic assay measuring the rate of increase in fluorescent intensity generated by TACE catalyzed cleavage of an internally quenched peptide substrate (SPDL-3). […] It is purified from the baculovirus/Hi5 cells expression system using affinity chromatography. […] MCA is (7-Methoxycoumarin-4-yl)acetyl. Dpa is N-3-(2,4-Dinitrophenyl)-L-2,3-diaminopropionyl.
A 50 μl assay mixture contains 20 mM HEPES, pH 7.3, 5 mM CaCl2, 100 μM ZnCl2, 2% DMSO, 0.04% Methylcellulose, 30 μM SPDL-3, 70 pM rhTACEc and a test compound. RhTACEc is pre-incubated with the testing compound for 90 min. at 25° C. Reaction is started by addition of the substrate. […] Rate of enzymatic reaction is shown as Units per second. Effect of a test compound is shown as % of TACE activity in the absence of the compound.

Where [1] appears, read: TACE inhibitory activity, class symbols.
Setting [2] is: TACE, representative compounds, numeric values.

The structures appear in SMILES notation. pKi: −log10 of the molar value. Where two headings read alike, the source gives them in different places.

T1 sequence (P78536 215-477 S266A/N452Q): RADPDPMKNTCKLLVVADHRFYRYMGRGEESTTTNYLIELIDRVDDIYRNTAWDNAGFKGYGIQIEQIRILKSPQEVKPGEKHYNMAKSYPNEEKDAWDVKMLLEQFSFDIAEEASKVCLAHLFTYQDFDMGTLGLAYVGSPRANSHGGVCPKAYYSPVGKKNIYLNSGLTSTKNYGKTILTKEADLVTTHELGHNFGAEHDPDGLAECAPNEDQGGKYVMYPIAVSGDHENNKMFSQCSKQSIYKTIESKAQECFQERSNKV

As a reminder, the pKi is the negative decadic logarithm of the Ki, by convention in mol/L. `C[C@@H](NC(=O)[C@H](O)[C@@H](O)C(=O)N1CCCCC1c1cccc(Cl)c1)c1ccc(-n2cccn2)cc1` (stereo partly drawn) [Compound 2415]: the negative logarithm of the Ki (pKi) under setting [1] is 7.00 to 7.70.

Take `CNc1nc([C@H]2CCCN2C(=O)[C@H](O)[C@@H](O)C(=O)N[C@H](C)c2ccc(-n3cccn3)cc2)c(S(C)(=O)=O)s1` [drawing 1294]: the negative logarithm of the Ki (pKi) under setting [2] was 9.42.

For `CCNc1nc([C@@H]2c3ccccc3CN2C(=O)[C@H](O)[C@@H](O)C(=O)N[C@H](C)c2ccc(-n3cccn3)cc2)cs1` [Compound 2595], the pKi under setting [1] is greater than 7.70.

As for `C[C@@H](NC(=O)[C@](C)(O)[C@@H](O)C(=O)N1Cc2cccnc2C1)c1ccc(-n2cccc2C#N)cc1` [Compound 2354], the pKi under setting [1] was 7.00 to 7.70.

For the compound `CNc1nc([C@H]2c3ccccc3CCN2C(=O)[C@H](O)[C@@H](O)C(=O)N[C@H](C)c2ccc(-n3cccn3)cc2)cs1` [drawing 1310], under setting [2], the pKi was 8.85.

As for `C[C@@H](NC(=O)[C@H](O)[C@@H](O)C(=O)N1Cc2cnc(N)nc2C1)c1ccc(-n2cccn2)cc1` [Compound 2043], the pKi under setting [1] is greater than 7.70.

Consider `C[C@@H](NC(=O)[C@H](O)[C@@H](O)C(=O)N1CCC[C@@H]1c1csc(NS(C)(=O)=O)n1)c1ccc(-n2cccn2)cc1` [Compound 2581], for which, under setting [1], the negative-log Ki (pKi) was greater than 7.70.

`C[C@@H](NC(=O)[C@H](O)[C@@H](O)C(=O)N1CCC[C@@H]1c1cccc(Cl)c1)c1ccc(-n2cccn2)cc1` [drawing 1304]: the pKi under setting [2] was 9.10.

For `C[C@@H](NC(=O)[C@H](O)[C@@H](O)C(=O)N1Cc2cccnc2C1)c1ccc(-n2cccn2)cc1` [Compound 2032], the negative-log Ki (pKi) under setting [1] was greater than 7.70.

Take `C[C@@H](NC(=O)[C@](C)(O)[C@@H](O)C(=O)N1CCc2ncccc2C1)c1ccc(-n2cccn2)cc1` [Compound 2078]: the negative-log Ki (pKi) under setting [1] was 6.00 to 7.00.

As to `C[C@@H](NC(=O)[C@H](O)[C@@H](O)C(=O)N1CCc2ccccc21)c1ccc(-n2cccn2)cc1` [Compound 2441], the negative logarithm of the Ki (pKi) under setting [1] was 7.00 to 7.70.

For `Cc1nnc([C@H](O)[C@@H](O)C(=O)NCC2CCN(c3ccc(F)cc3C#N)CC2)n1C` [Compound 2399], under setting [1], the negative-log Ki (pKi) was less than 6.00.

Turning to `C[C@@H](NC(=O)[C@H](O)[C@@H](O)C(=O)N1CCC[C@@H]1c1ccn(-c2ccccc2)n1)c1ccc(-n2cccn2)cc1` [drawing 1318], under setting [2], the pKi was 8.64.

For the compound `C[C@@H](NC(=O)[C@H](O)[C@@H](O)C(=O)N1CC(C)(C)CC1(C)c1nccs1)c1ccc(-n2cccn2)cc1` (stereo partly drawn) [Compound 2241], the pKi under setting [1] was 6.00 to 7.00.

Regarding `C[C@@H](NC(=O)[C@H](O)[C@@H](O)C(=O)N1CCC[C@@H]1c1cn2ccccc2n1)c1ccc(-n2cccn2)cc1` [Compound 2507], the pKi under setting [1] was greater than 7.70.

Turning to `N#Cc1cc(F)ccc1N1CCC(CNC(=O)[C@H](O)[C@@H](O)C(=O)N2Cc3ccncc3C2)CC1` [Compound 2007], the negative-log Ki (pKi) under setting [1] is greater than 7.70.

`CNc1nc([C@H]2CC(F)(F)CN2C(=O)[C@H](O)[C@@H](O)C(=O)N[C@H](C)c2ccc(-n3cccn3)cc2)cs1` [Compound 2567]: the negative-log Ki (pKi) under setting [1] was greater than 7.70.

Regarding `CC(=O)N(C)c1nc([C@H]2CCCN2C(=O)[C@H](O)[C@@H](O)C(=O)N[C@H](C)c2ccc(-n3cccn3)cc2)cs1` [Compound 2261], the pKi under setting [1] is greater than 7.70.

With `C[C@@H](NC(=O)[C@H](O)[C@@H](O)C(=O)N1Cc2cncnc2C1(C)C)c1ccc(-n2cccn2)cc1` [Compound 2046], the pKi under setting [1] is 6.00 to 7.00.

For `CNc1ncc2c(n1)CN(C(=O)[C@H](O)[C@@H](O)C(=O)N[C@H](C)c1ccc(-n3cccn3)cc1)C2C` (stereo partly drawn) [Compound 2054], the pKi under setting [1] was greater than 7.70.

For `C[C@@H](NC(=O)[C@](C)(O)[C@@H](O)C(=O)N1CCc2ccc(F)cc2C1)c1ccc(-n2cccn2)cc1` [Compound 2440], the negative logarithm of the Ki (pKi) under setting [1] was 7.00 to 7.70.

As for `Cc1cccc2c1CN(C(=O)[C@H](O)[C@@](C)(O)C(=O)N[C@H](C)c1ccc(-n3cccn3)cc1)C2` [Compound 2446], under setting [1], the pKi is 7.00 to 7.70.

With `C[C@@H](NC(=O)[C@H](O)[C@@H](O)C(=O)N1CCCC1c1nccs1)c1ccc(-n2cccn2)cc1` (stereo partly drawn) [Compound 2600], the negative-log Ki (pKi) under setting [1] was greater than 7.70.

For the compound `C[C@@H](NC(=O)[C@H](O)[C@@H](O)C(=O)N1CCc2cn[nH]c2C1)c1ccc(-n2cccn2)cc1` [Compound 2076], the negative-log Ki (pKi) under setting [1] was 7.00 to 7.70.

On to `CC#CCOc1cc([C@@H](C)NC(=O)[C@H](O)[C@@H](O)C(=O)N2Cc3cccnc3C2)ccc1-n1cccn1` [Compound 2359], for which the pKi under setting [1] is greater than 7.70.

In the case of `C[C@@H](NC(=O)[C@H](O)[C@@H](O)C(=O)N1CCN(c2ccccc2)C(=O)C1)c1ccc(-n2cccn2)cc1` [Compound 2425], the pKi under setting [1] was 6.00 to 7.00.

As for `CCOc1cc(F)ccc1-c1ccc(CNC(=O)[C@H](O)[C@@H](O)C(=O)N2Cc3cccnc3C2)cc1` [Compound 2036], the negative-log Ki (pKi) under setting [1] was greater than 7.70.

For `C[C@@H](NC(=O)[C@H](O)[C@@H](O)C(=O)N1C[C@H](O)C[C@H]1c1cccc(Cl)c1)c1ccc(-n2cccn2)cc1` [Compound 2265], the negative-log Ki (pKi) under setting [1] was greater than 7.70.

Regarding `C[C@@H](NC(=O)[C@](C)(O)[C@@H](O)C(=O)N1CCCC1(C)c1cccc(Cl)c1)c1ccc(-n2cccn2)cc1` (stereo partly drawn) [Compound 2236], the negative-log Ki (pKi) under setting [1] was less than 6.00.

For `C[C@@H](NC(=O)[C@H](O)[C@@H](O)C(=O)N1Cc2ccncc2C1)C1CCN(c2ccccc2OC(F)(F)F)CC1`, under setting [2], the negative logarithm of the Ki (pKi) is 9.13.

As for `C[C@@H](NC(=O)[C@H](O)[C@@H](O)C(=O)N1CCc2ccc(F)cc2C1)c1ccc(-n2cccn2)cc1` [drawing 1323], under setting [2], the pKi was 8.52.

For `C[C@@H](NC(=O)[C@H](O)[C@@H](O)C(=O)N1CCc2c(cnn2C)C1)c1ccc(-n2cccn2)cc1` [Compound 2074], under setting [1], the negative logarithm of the Ki (pKi) was 7.00 to 7.70.

With `C[C@@H](NC(=O)[C@H](O)[C@@H](O)C(=O)N1CCCc2ccccc21)c1ccc(-n2cccn2)cc1` [Compound 2421], the pKi under setting [1] was 6.00 to 7.00.

With `CO[C@@H](C(=O)NCc1ccc(-c2ccc(F)cc2OCCC2CCCCC2)cc1)[C@@H](O)C(=O)N1Cc2cccnc2C1` [Compound 2476], the pKi under setting [1] is 7.00 to 7.70.

As to `N#Cc1ccccc1N1CCC2(CC1)CC2NC(=O)[C@H](O)[C@@H](O)C(=O)N1CCC[C@@H]1c1ccccc1` (stereo partly drawn) [Compound 2152], the pKi under setting [1] was less than 6.00.

`C[C@@H](NC(=O)[C@](C)(O)[C@@H](O)C(=O)N1Cc2cccnc2C1)c1ccc(-c2cccc(OCCC3CCCCC3)c2)cc1` [Compound 2353A]: the negative-log Ki (pKi) under setting [1] is 6.00 to 7.00.

With `CNc1ncc2c(n1)CN(C(=O)[C@H](O)[C@@H](O)C(=O)N[C@H](C)c1ccc(-n3cccn3)cc1)C2` [Compound 2052], the pKi under setting [1] was greater than 7.70.

In the case of `CC(C)Nc1nc([C@@H]2c3ccc(Cl)cc3CCN2C(=O)[C@H](O)[C@@H](O)C(=O)N[C@H](C)c2ccc(-n3cccn3)cc2)cs1` [Compound 2590], under setting [1], the pKi is greater than 7.70.

As to `O=C(NCC1CCN(c2ccc(F)cc2OCCC2CCCCC2)CC1)[C@H](O)[C@@H](O)C(=O)N1CCCC1` [Compound 2159], the negative logarithm of the Ki (pKi) under setting [1] is 7.00 to 7.70.

As to `C[C@@H](NC(=O)[C@](C)(O)[C@@H](O)C(=O)N1CCCC1(C)c1cccc(Cl)c1)c1ccc(-n2cccn2)cc1` (stereo partly drawn) [drawing 1303], the pKi under setting [2] was 9.12.

As for `C[C@](O)(C(=O)NCC1CCN(c2ccccc2OC(F)(F)F)CC1)[C@@H](O)C(=O)N1Cc2cccnc2C1` [Compound 2038], the pKi under setting [1] is 7.00 to 7.70.

With `CCNc1nc([C@@H]2c3ccccc3CN2C(=O)[C@H](O)[C@@H](O)C(=O)N[C@H](C)c2ccc(-n3cccn3)cc2)cs1` [drawing 1307], the pKi under setting [2] was 9.05.

The values are drawn from patent US7652020B2, “Compounds for the treatment of inflammatory disorders” (Schering Corporation, priority 2004, dated 2010).
